# Laboratory results taken from BindingDB's records for doi:10.1016/j.bmcl.2009.09.018 (Sun Yat-Sen University, 2009).
# Target: T1, Polyphenol oxidase 2 (Agaricus bisporus, UniProt O42713)
# T1 sequence (O42713 whole entry): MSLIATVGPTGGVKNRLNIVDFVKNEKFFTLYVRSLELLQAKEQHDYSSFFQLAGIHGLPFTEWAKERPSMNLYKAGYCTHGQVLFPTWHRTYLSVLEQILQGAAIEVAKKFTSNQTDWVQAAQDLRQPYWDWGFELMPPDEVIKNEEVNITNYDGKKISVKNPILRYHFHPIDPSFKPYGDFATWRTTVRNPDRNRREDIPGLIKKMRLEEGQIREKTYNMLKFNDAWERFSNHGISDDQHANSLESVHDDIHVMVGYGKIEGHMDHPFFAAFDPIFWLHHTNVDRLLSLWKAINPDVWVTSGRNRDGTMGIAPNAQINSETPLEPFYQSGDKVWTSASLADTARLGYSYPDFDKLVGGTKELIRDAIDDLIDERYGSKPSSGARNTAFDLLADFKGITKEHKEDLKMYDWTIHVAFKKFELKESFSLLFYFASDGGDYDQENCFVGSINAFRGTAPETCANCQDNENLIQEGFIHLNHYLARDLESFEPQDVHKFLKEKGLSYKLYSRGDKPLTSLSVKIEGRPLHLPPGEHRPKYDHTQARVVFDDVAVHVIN
# Experiment: Inhibition of mushroom tyrosinase
row,SMILES,IC50 [µM]
1,"CC(=O)OC[C@H]1O[C@@H](O[C@H]2[C@H](OC(C)=O)[C@@H](OC(C)=O)[C@H](Oc3ccc(CN=O)cc3)O[C@@H]2COC(C)=O)[C@H](OC(C)=O)[C@@H](OC(C)=O)[C@H]1OC(C)=O [(2R,3S,4S,5R,6S)-2-(acetoxymethyl)-6-((2R,3R,4S,5R,6S)-4,5-diacetoxy-2-(acetoxymethyl)-6-(4-((hydroxyimino)methyl)phenoxy)tetrahydro-2H-pyran-3-yloxy)tetrahydro-2H-pyran-3,4,5-triyl triacetate]",> 200
2,"CC(=O)OC[C@H]1O[C@@H](Oc2ccc(CN=O)cc2)[C@H](OC(C)=O)[C@H](OC(C)=O)[C@@H]1OC(C)=O [(2R,3R,4R,5R,6S)-2-(acetoxymethyl)-6-(4-((hydroxyimino)methyl)phenoxy)tetrahydro-2H-pyran-3,4,5-triyl triacetate]",> 200
3,"O=NCc1ccc(O[C@@H]2O[C@H](CO)[C@@H](O)[C@@H](O)[C@H]2O)cc1 [4-((2S,3R,4R,5S,6R)-3,4,5-trihydroxy-6-(hydroxymethyl)tetrahydro-2H-pyran-2-yloxy)benzaldehyde oxime]",> 200
4,"CC(=O)OC[C@H]1O[C@@H](Oc2ccc(CN=O)cc2)[C@H](OC(C)=O)[C@@H](OC(C)=O)[C@H]1OC(C)=O [(2R,3S,4S,5R,6S)-2-(acetoxymethyl)-6-(4-((hydroxyimino)methyl)phenoxy)tetrahydro-2H-pyran-3,4,5-triyl triacetate]",> 200

# Next, values leading:
row,IC50 [µM],SMILES
1,> 200,CC(=O)OC[C@H]1O[C@@H](Oc2ccc(CN=O)cc2)[C@H](OC(C)=O)[C@@H](OC(C)=O)[C@@H]1OC(C)=O
2,> 200,"O=NCc1ccc(O[C@@H]2OC[C@@H](OC(=O)c3ccccc3)[C@H](OC(=O)c3ccccc3)[C@H]2OC(=O)c2ccccc2)cc1 [(2S,3R,4S,5R)-2-(4-((hydroxyimino)methyl)phenoxy)tetrahydro-2H-pyran-3,4,5-triyl tribenzoate]"
3,> 200,O=NCc1ccc(O[C@@H]2O[C@H](CO)[C@@H](O)[C@H](O)[C@H]2O)cc1
4,> 200,"O=NCc1ccc(O[C@@H]2O[C@H](COC(=O)c3ccccc3)[C@@H](OC(=O)c3ccccc3)[C@@H](OC(=O)c3ccccc3)[C@H]2OC(=O)c2ccccc2)cc1 [(2R,3R,4R,5R,6S)-2-(benzoyloxymethyl)-6-(4-((hydroxyimino)methyl)phenoxy)tetrahydro-2H-pyran-3,4,5-triyl tribenzoate]"
